What was measured:
Test in all cases: Kinase panel activity
Assay type in all cases: biochemical
Conditions in all cases: 0.1 μM, ATP Km
AMPKα2(h) = AMPKα2(h) (Homo sapiens, UniProt P54646)
Procedure: (§1) The effect of NTW-3475 on kinase activity was tested for a wide range of kinases and is shown in Table 2: Summary Sheet, Activity % ATP Concentration: Km

Ab1(H396P)(h) = Ab1(H396P)(h) (Homo sapiens, UniProt P00519, H396P)
Procedure: as §1

Arg(m) = Arg(m) (Mus musculus, UniProt Q4JIM5)
Procedure: as §1

Aurora-B(h) = Aurora-B(h) (Homo sapiens, UniProt Q96GD4)
Procedure: as §1

Ax1(h) = Ax1(h) (Homo sapiens, UniProt P30530)
Procedure: as §1

CDK9/cyclin T1(h) = CDK9/cyclin T1(h) (Homo sapiens, UniProt P50750)
Procedure: as §1

CHK1(h) = CHK1(h) (Homo sapiens, UniProt O14757)
Sequence of CHK1(h) (O14757 whole entry): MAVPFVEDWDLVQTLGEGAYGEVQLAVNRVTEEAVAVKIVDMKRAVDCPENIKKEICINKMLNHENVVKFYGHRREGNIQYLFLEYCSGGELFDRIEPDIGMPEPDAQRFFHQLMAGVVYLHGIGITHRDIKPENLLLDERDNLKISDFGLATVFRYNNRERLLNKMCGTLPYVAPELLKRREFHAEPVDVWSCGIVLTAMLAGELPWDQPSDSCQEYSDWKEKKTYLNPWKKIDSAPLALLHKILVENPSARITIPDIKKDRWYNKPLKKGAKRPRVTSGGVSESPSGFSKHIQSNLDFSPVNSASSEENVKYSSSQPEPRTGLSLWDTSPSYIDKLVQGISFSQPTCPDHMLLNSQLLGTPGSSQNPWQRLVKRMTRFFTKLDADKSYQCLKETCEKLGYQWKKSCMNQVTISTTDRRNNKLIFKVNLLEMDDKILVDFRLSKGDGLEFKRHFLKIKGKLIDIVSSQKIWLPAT
Procedure: as §1

CaMKIIβ(h) = CaMKIIβ(h) (Homo sapiens, UniProt Q13554)
Procedure: as §1

EGFR(h) = biological target: T1, EGFR(h) (Homo sapiens, UniProt P00533)
T1 construct: purchased Millipore (KinaseProfiler service)
Procedure: as §1

EphB1(h) = biological target: T2, EphB1(h) (Homo sapiens, UniProt P54762)
T2 construct: purchased Millipore (KinaseProfiler service)
Procedure: as §1

EphB3(h) = biological target: T3, EphB3(h) (Homo sapiens, UniProt P54753)
T3 construct: purchased Millipore (KinaseProfiler service)
T3 sequence (P54753 34-998): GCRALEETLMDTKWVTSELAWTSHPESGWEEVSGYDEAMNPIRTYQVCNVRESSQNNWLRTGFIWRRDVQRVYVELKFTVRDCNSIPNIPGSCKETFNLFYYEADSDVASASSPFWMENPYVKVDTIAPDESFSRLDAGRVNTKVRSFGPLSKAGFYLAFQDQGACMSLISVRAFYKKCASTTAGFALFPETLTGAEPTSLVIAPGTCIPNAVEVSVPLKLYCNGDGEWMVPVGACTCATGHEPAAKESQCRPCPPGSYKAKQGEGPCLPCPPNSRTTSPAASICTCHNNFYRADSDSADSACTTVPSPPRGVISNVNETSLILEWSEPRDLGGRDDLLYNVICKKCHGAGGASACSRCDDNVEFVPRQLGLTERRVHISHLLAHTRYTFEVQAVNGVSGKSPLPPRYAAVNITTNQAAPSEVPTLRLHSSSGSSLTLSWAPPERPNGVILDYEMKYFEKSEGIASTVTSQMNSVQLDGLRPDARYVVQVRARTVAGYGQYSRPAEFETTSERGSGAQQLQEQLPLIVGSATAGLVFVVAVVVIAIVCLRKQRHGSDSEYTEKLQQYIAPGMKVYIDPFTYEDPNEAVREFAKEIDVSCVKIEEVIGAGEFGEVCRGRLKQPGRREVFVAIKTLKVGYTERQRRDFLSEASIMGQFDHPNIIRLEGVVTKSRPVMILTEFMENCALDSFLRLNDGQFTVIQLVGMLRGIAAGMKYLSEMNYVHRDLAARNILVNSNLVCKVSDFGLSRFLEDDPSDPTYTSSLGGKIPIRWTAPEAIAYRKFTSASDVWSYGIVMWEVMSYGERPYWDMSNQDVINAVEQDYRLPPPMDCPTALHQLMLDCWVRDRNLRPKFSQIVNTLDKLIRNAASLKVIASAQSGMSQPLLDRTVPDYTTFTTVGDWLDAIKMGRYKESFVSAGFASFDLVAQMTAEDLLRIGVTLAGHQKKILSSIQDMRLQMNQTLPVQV
Procedure: as §1

F1t3(D835Y)(h) = F1t3(D835Y)(h) (Homo sapiens, UniProt P36888, D835Y)
Procedure: as §1

GRK7(h) = GRK7(h) (Homo sapiens, UniProt Q8WTQ7)
Procedure: as §1

IRAK1(h) = IRAK1(h) (Homo sapiens, UniProt P51617)
Procedure: as §1

IRR(h) = IRR(h) (Homo sapiens, UniProt P14616)
Procedure: as §1

JNK2α2(h) = JNK2α2(h) (Homo sapiens, UniProt P45984)
Procedure: as §1

Lck(h) activated = Lck(h) activated (Homo sapiens, UniProt P06239)
Sequence of Lck(h) activated (P06239 whole entry): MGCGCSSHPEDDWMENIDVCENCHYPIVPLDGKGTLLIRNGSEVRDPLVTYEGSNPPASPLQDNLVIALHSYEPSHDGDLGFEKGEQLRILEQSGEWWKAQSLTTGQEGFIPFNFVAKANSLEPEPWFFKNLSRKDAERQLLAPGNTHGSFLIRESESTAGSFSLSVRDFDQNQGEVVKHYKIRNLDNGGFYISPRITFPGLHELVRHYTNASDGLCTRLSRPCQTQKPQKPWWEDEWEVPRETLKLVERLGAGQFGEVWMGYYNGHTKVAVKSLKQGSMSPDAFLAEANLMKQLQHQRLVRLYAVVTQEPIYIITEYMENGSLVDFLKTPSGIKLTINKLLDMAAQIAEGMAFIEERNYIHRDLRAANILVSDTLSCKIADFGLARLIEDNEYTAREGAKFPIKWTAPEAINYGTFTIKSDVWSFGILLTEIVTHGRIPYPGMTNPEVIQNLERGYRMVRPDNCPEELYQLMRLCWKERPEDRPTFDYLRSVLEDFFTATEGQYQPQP
Procedure: as §1

MKK4(m) = biological target: T4, MKK4(m) (Mus musculus, UniProt P47809)
T4 construct: purchased Millipore (KinaseProfiler service)
Procedure: as §1

MST1(h) = MST1(h) (Homo sapiens, UniProt Q13043)
Sequence of MST1(h) (Q13043 whole entry): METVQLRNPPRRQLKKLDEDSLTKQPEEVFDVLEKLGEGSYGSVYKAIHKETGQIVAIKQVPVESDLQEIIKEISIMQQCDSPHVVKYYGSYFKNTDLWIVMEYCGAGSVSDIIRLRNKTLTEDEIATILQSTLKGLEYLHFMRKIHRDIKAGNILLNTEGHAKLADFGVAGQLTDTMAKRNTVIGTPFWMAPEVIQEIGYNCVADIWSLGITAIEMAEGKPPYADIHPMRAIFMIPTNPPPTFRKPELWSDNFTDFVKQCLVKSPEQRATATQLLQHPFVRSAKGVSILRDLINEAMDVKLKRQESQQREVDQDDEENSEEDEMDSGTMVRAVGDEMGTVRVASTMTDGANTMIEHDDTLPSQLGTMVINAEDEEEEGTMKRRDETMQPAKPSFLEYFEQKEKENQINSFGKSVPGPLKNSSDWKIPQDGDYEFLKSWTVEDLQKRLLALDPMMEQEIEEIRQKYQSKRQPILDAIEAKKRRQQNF
Procedure: as §1

Met(D1246H)(h) = biological target: T5, Met(D1246H)(h) (Homo sapiens, UniProt P08581, D1228H)
T5 construct: purchased Millipore (KinaseProfiler service)
Procedure: as §1

Met(Y1248C)(h) = biological target: T6, Met(Y1248C)(h) (Homo sapiens, UniProt P08581, Y1230C)
T6 construct: purchased Millipore (KinaseProfiler service)
Procedure: as §1

Met(Y1248D)(h) = biological target: T7, Met(Y1248D)(h) (Homo sapiens, UniProt P08581, Y1230D)
T7 construct: purchased Millipore (KinaseProfiler service)
Procedure: as §1

P1k1(h) = P1k1(h) (Homo sapiens, UniProt P53350)
Sequence of P1k1(h) (P53350 whole entry): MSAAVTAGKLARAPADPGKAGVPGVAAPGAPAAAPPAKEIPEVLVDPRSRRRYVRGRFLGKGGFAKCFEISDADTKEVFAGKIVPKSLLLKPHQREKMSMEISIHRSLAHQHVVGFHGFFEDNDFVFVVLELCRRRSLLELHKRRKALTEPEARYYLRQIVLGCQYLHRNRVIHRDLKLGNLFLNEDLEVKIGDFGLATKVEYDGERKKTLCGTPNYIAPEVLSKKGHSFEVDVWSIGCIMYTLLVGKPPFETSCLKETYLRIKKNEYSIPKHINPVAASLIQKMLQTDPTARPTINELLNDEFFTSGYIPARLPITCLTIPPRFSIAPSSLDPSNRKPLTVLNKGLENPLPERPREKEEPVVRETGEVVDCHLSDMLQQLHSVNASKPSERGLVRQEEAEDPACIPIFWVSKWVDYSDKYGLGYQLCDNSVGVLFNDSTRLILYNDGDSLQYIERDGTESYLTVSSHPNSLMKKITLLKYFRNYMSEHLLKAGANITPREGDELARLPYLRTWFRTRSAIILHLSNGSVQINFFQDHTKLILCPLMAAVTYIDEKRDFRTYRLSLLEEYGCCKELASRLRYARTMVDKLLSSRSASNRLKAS
Procedure: as §1

P1k3(h) = P1k3(h) (Homo sapiens, UniProt Q9H4B4)
Procedure: as §1

PDGFRα(D842V)(h) = PDGFRα(D842V)(h) (Homo sapiens, UniProt P16234, D842V)
Procedure: as §1

PDGFRβ(h) = PDGFRβ(h) (Homo sapiens, UniProt P09619)
Procedure: as §1

PEK(h) = PEK(h) (Homo sapiens, UniProt Q9NZJ5)
Procedure: as §1

PKCγ(h) = PKCγ(h) (Homo sapiens, UniProt P05129)
Procedure: as §1

PKGIβ(h) = PKGIβ(h) (Homo sapiens, UniProt Q13976)
Sequence of PKGIβ(h) (Q13976 1-686 isoform Q13976-2): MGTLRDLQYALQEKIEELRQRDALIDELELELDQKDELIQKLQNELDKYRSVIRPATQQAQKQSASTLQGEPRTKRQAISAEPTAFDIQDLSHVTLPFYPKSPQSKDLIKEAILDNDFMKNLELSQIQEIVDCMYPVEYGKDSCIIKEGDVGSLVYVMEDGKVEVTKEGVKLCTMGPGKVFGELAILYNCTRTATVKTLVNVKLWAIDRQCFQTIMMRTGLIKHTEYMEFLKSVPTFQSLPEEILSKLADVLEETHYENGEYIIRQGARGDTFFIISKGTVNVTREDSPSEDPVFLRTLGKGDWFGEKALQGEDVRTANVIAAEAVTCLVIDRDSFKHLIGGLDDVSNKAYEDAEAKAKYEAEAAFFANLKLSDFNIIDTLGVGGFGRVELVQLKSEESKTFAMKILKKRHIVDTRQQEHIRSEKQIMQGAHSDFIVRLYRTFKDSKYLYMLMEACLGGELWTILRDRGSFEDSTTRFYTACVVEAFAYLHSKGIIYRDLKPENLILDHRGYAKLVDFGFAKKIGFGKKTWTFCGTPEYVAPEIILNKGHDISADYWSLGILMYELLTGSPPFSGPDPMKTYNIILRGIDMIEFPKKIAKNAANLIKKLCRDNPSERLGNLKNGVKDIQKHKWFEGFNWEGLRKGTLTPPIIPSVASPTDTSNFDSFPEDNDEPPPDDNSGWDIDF
Procedure: as §1

PrKX(h) = biological target: T8, PrKX(h) (Homo sapiens, UniProt P51817)
T8 construct: purchased Millipore (KinaseProfiler service)
Procedure: as §1

Ret(V804L)(h) = biological target: T9, Ret(V804L)(h) (Homo sapiens, UniProt P07949, V804L)
T9 construct: purchased Millipore (KinaseProfiler service)
Procedure: as §1

Rse(h) = biological target: T10, Rse(h) (Homo sapiens, UniProt Q06418)
T10 construct: purchased Millipore (KinaseProfiler service)
Procedure: as §1

Rsk1(r) = biological target: T11, Rsk1(r) (Rattus norvegicus, UniProt Q63531)
T11 construct: purchased Millipore (KinaseProfiler service)
Procedure: as §1

SAPK2b(h) = biological target: T12, SAPK2b(h) (Homo sapiens, UniProt Q15759)
T12 construct: purchased Millipore (KinaseProfiler service)
T12 sequence (Q15759 whole entry): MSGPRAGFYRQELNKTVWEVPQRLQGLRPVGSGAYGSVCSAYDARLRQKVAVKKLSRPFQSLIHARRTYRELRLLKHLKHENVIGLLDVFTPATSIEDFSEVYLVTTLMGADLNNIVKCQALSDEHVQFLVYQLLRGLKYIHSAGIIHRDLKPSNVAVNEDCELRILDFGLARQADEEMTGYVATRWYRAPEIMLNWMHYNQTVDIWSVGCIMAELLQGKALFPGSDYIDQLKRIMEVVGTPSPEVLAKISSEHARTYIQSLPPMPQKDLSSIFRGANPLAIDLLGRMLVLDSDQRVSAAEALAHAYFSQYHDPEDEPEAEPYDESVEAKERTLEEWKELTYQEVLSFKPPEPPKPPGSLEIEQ
Procedure: as §1

SAPK3(h) = biological target: T13, SAPK3(h) (Homo sapiens, UniProt P53778)
T13 construct: purchased Millipore (KinaseProfiler service)
T13 sequence (P53778 whole entry): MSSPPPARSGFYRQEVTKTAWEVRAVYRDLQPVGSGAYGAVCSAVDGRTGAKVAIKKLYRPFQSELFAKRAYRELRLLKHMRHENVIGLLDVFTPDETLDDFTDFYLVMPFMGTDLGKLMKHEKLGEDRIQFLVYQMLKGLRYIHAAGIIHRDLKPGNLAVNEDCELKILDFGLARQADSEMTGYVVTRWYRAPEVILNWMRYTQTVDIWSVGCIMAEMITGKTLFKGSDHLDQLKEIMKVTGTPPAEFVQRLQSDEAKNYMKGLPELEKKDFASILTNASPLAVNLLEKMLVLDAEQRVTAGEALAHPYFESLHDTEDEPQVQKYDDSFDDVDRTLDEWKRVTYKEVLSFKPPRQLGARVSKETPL
Procedure: as §1

SGK3(h) = biological target: T14, SGK3(h) (Homo sapiens, UniProt Q96BR1)
T14 construct: purchased Millipore (KinaseProfiler service)
T14 sequence (Q96BR1 whole entry): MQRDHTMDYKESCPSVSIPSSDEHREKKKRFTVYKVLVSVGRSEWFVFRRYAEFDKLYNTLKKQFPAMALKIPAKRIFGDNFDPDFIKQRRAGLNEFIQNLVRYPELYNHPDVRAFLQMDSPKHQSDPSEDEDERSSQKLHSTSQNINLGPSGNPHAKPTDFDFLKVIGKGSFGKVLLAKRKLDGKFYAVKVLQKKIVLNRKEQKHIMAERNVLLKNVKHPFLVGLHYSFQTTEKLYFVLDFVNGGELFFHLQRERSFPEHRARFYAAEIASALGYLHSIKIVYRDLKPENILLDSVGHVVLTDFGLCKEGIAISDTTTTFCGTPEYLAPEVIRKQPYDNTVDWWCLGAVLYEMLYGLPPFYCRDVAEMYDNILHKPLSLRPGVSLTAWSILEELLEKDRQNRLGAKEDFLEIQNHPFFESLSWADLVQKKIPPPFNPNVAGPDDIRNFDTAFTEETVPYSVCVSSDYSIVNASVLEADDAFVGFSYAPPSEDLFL
Procedure: as §1

TAK1(h) = biological target: T15, TAK1(h) (Homo sapiens, UniProt O43318)
T15 construct: purchased Millipore (KinaseProfiler service)
Procedure: as §1

TAO3(h) = biological target: T16, TAO3(h) (Homo sapiens, UniProt Q9H2K8)
T16 construct: purchased Millipore (KinaseProfiler service)
Procedure: as §1

cKit(V654A)(h) = cKit(V654A)(h) (Homo sapiens, UniProt P10721, V654A)
Procedure: as §1

Activity % (AMPKα2(h)): 5%
Activity % (Ab1(H396P)(h)): −3%
Activity % (Arg(m)): −2%
Activity % (Aurora-B(h)): 1%
Activity % (Ax1(h)): 34%
Activity % (CDK9/cyclin T1(h)): 52%
Activity % (CHK1(h)): 113%
Activity % (CaMKIIβ(h)): 99%
Activity % (EGFR(h)): 108%
Activity % (EphB1(h)): −1%
Activity % (EphB3(h)): 99%
Activity % (F1t3(D835Y)(h)): 0%
Activity % (GRK7(h)): 97%
Activity % (IRAK1(h)): 96%
Activity % (IRR(h)): 6%
Activity % (JNK2α2(h)): 107%
Activity % (Lck(h) activated): −1%
Activity % (MKK4(m)): 100%
Activity % (MST1(h)): 24%
Activity % (Met(D1246H)(h)): 18%
Activity % (Met(Y1248C)(h)): 20%
Activity % (Met(Y1248D)(h)): 21%
Activity % (P1k1(h)): 107%
Activity % (P1k3(h)): 95%
Activity % (PDGFRα(D842V)(h)): 17%
Activity % (PDGFRβ(h)): 89%
Activity % (PEK(h)): 103%
Activity % (PKCγ(h)): 102%
Activity % (PKGIβ(h)): 111%
Activity % (PrKX(h)): 68%
Activity % (Ret(V804L)(h)): −4%
Activity % (Rse(h)): 55%
Activity % (Rsk1(r)): 69%
Activity % (SAPK2b(h)): 103%
Activity % (SAPK3(h)): 115%
Activity % (SGK3(h)): 102%
Activity % (TAK1(h)): 65%
Activity % (TAO3(h)): 16%
Activity % (cKit(V654A)(h)): 32%
Structure (SMILES): Cc1cc2c(F)c(Oc3nc(Nc4cc(C5CC5)[nH]n4)cc(N4CCN(C)CC4)n3)cc(F)c2[nH]1 [NTW-3475]

— US9458137B2, “Substituted indol-5-ol derivatives and their therapeutical applications” (NantBioScience, Inc., priority 2012, dated 2016)
